Assay results reported in patent US5242945A, “Tetronic and thiotetronic acid derivatives as phospholipase A2 inhibitors” (American Home Products Corporation, priority 1991, dated 1993).
pIC50: −log10 of the molar value. Read-outs that look alike come from different tables or passages of the source.

Assays:
[1] = target: T1, human synovial fluid PLA2 (Homo sapiens, UniProt P14555); experiment: in vitro isolated phospholipase A2 assay, human synovial fluid PLA2; assay type: biochemical; settings: at 10 μM; + values given without explanation; read-out: % Inhibition HSF (human synovial fluid)
T1 construct: Purified human synovial fluid; from tissue; host or cells: human synovial fluid
T1 sequence (P14555 21-144): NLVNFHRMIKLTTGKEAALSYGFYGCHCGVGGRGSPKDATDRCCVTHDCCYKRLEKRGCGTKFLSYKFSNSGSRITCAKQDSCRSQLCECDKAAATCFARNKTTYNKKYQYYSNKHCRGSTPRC
Method: (§1) The compounds of the invention are tested in an in vitro isolated phospholipase A2 assay to determine the ability of the test compounds to inhibit the release of arachidonic acid from an arachidonic acid-containing substrate by the action of phospholipase A2 enzyme from human and non-human sources.
(§2) Into a 15 mL polypropylene tube are added the following:
(§3) ^3 H-AA E. coli substrate^1
(§4) Tris-HCl (0.5 M) pH 7.5^3
(§5) PLA2 25 Volume yielding 12%
(§6) 100 hydrolysis in 10 min.
(§7) *pre-incubate at room temperature 30 min prior to substrate addition.
(§8) ^6 Two human PLA2 enzymes are used: a) Semipurified human
(§9) platelet acid extract PLA2 (in 10 mM sodium acetate buffer, pH 4.5).
(§10) Remove protein precipitate by centrifugation at about 2200 rpm for 10
(§11) minutes. b) Purified human synovial fluid.
(§12) Incubate the 100 μL reaction mixture for 10 minutes at 37° C. in a shaking water bath. The reaction is terminated by the addition of 2 mL tetrahydrofuran, followed by vortexing. NH2 columns (100 μg/mL--Analytichem International) are conditioned with 0.5 mL tetrahydrofuran followed by 0.5 mL tetrahydrofuran/water (2 mL:0.1 mL, v/v).
(§13) The sample is loaded onto the columns and slowly drawn through them. The hydrolyzed arachidonic acid retained in the columns is eluted therefrom with 1 mL tetrahydrofuran/glacial acetic acid (2%). The arachidonic acid is transferred to scintillation vials and quantitated by β-counting analysis. A "total counts" sample is prepared by pipetting 25 μL ^3 H-arachidonate E. coli directly into a scintillation vial to which is added 1 mL tetrahydrofuran. 10 mL aquasol (scintillation cocktail) is added to all samples.

human platelet PLA2 = target: T2, human platelet PLA2 (Homo sapiens, UniProt P14555); experiment: in vitro isolated phospholipase A2 assay, human platelet PLA2; assay type: biochemical; settings: at 10 μM; + values given without explanation; read-out: % Inhibition HP (human platelet)
T2 construct: platelet acid extract PLA2; from tissue; host or cells: human platelets, semipurified acid extract
T2 sequence (P14555 21-144): T1 sequence (P14555 21-144)
Method: as §1, §2, §3, §4, §5, §6, §7, §8, §9, §10, §11, §12, §13

cyclooxygenase (PGE2) = experiment: resident murine peritoneal macrophage assay, PGE2; assay type: cell-based, mouse (Swiss Webster); settings: for inhibition at 0.5 µM / inhibition at 1 µM: read-out: PGE2 zymosan % Inhibition
Method: (§14) The ability of the compounds of the invention to act as inhibitors of the enzymes 5-lipoxygenase and cyclooxygenase is measured in the resident murine peritoneal macrophage assay.
Resident peritoneal macrophages are collected from female Swiss Webster mice (49 days old, 20-25 gms, Buckshire) by lavaging with 7-8 ml Hanks Balanced Salt Solution (HBSS) without Ca^++ and Mg^++ (GIBCO). The lavage fluid from several mice is pooled and centrifuged at 4° C. for 10 minutes at 400 xg. The cell pellet is resuspended in Medium 199 (GIBCO) with HEPES buffer containing 100 μg/ml gentamicin. Two ml of the cell suspension (4×10^6 cells) are then plated on 35 mm culture dishes (Nunc).
A macrophage monolayer is established after a 1-1.5 hour incubation of the cells at 37° C. in an atmosphere of […] and 5% CO2. The monolayers are washed 2× with 2 ml HBDSS, containing Ca^++ and Mg^++ after which 2 ml Medium 199 supplemented with 10% freshly thawed heat-inactivated fetal bovine serum and 100 μg/ml gentamicin is added for an overnight incubation.
(§15) Residual serum and cellular debris are removed from the monolayers by washing 3× with 2 ml HBSS containing Ca^++ and Mg^++. Macrophages are preincubated for 5 minutes with 1 ml serum-free M199 containing 10 μl dimethyl sulfoxide (DMSO) vehicle or test compound prior to cell activation with zymosan ([…]) or arachidonic acid (AA) (2 μM). After 2 hours, the supernatants are removed and either assayed for LTC4 and PGE2 by radioimmunoassay (RIA) directly or stored at -20° C. In all cases, results are expressed as ng metabolite/4×10^6 cells.
(§16) Raw data (dpm) may be stored directly onto an "Autostart" tape using the HP85 in room C-096. The raw data are converted to ng metabolite/4-10^6cells using the standard curve by a "RIANAL" program (HP85) or a "NONLIN" program (HP9816). Results are then expressed as percent inhibition of zymosan induced, leukotriene or prostaglandin synthesis (control) using the equation: [formula]

5-lipoxygenase (LTC4) = experiment: resident murine peritoneal macrophage assay, LTC4; assay type: cell-based, mouse (Swiss Webster)
Method: as §14
Resident peritoneal macrophages are collected from female Swiss Webster mice (49 days old, 20-25 gms, Buckshire) by lavaging with 7-8 ml Hanks Balanced Salt Solution (HBSS) without Ca^++ and Mg^++ (GIBCO). The lavage fluid from several mice is pooled and centrifuged at 4° C. for 10 minutes at 400 xg.
as §15, §16

[2] = system: purified PLA2, from the diamond back cotton mouth snake (A. piscivorus piscivorus); experiment: in vivo PLA2 murine paw edema assay; design: species or system A. piscivorus piscivorus PLA2 in CD-1 mice; settings: p.o.; at +10 min
Method: The ability of the compounds of the invention to inhibit paw edema induced by the exogenous administration of PLA2 is measured in the in vivo PLA2 murine paw edema assay.
Non-fasted, male CD-1 mice (8 weeks old; 31-36 grams) are placed in plastic boxes in groups of six. The right hind paw volume is measured using mercury plethysmography (zero time). Compounds are dosed orally (0.5 mL of 0.5% Tween-80) 1 or 3 hours prior to PLA2 injection or intravenously (0.2 mL in 0.3% dimethylsulfoxide/saline) 3 minutes prior to PLA2 injection. A solution of purified PLA2, from the diamond back cotton mouth snake (A. piscivorus piscivorus) is prepared in saline at a concentration of 6 μg/mL. Fifty (50) μL (0.3 μg) of this PLA2 solution is injected subcutaneously into the right hind paw with a plastic 1 mL plastic syringe (27 gauge, 1" needle). Paw volume of the injected paw is measured again at 10 minutes, 30 minutes and 60 minutes after PLA2 injection. Animals are euthanized with CO2 at the completion of the study.
The paw edema is calculated by subtracting the zero time volume from the volume recorded at each time period. Mean paw edema for each treatment group is then calculated and expressed as (μL±S.E.). Drug effects are expressed as a percent change from control (vehicle) values. Statistical significance is determined by a one-way analysis of variance with LSD comparison to control (p<0.05). ED50 's are determined using […].

TPA-induced ear edema = experiment: 12-o-tetradecanoylphorbol acetate (TPA)-induced murine ear edema assay; assay type: in vivo, mouse (Swiss Webster); settings: TPA; topical, 200 μg, vehicle acetone
Method: The ability of the compounds of the invention to inhibit inflammatory responses is examined in the in vivo arachidonic acid (AA)/12-o-tetradecanoylphorbol acetate (TPA)-induced murine ear edema assay.
Swiss Webster female mice (Buckshire), approximately 8 weeks old are placed into plastic boxes in groups of six. Eight groups of mice receive AA topically on the right ear, and another 8 groups receive TPA topically on the right ear. AA and TPA are dissolved in acetone at concentrations of 100 mg/ml and 100 μg/ml respectively. The phlogistics are applied to the right ear by the means of an automatic pipet. Volumes of 10 μl are applied to the inner and outer surfaces of the ear. Each mouse receives either 2 mg/ear AA or 2 μg/ear TPA. The left ear (control) receives acetone delivered in the same manner. Topical and subcutaneous dosing regimens are as follows 1) drugs are given 30 minutes prior to AA treatment and 2) drugs are given 30 minutes after treatment with TPA.
Measurements are taken with Oditest calipers, 0-10 mm with 0.01 graduations. The right and left ears are measured after 1 hr AA-induced inflammation and 4 hours after TPA-induced inflammation.
The difference between right and left ear thickness is calculated and the significance is determined by a one way analysis of variance with Dunnett's comparisons to control (P=0.05). Drug effects are expressed as a percent change from control values: [formula]

[3] = Mus musculus, Peritoneal macrophage, zymosan stimulation
[4] = zymosan stimulation, dose not given
[5] = Mus musculus, Peritoneal macrophage, zymosan stimulation, 0.2 μM

Row | Compound | inhibition at 10 µM [1] [%] | inhibition at 10 µM (human platelet PLA2) [%] | inhibition at 0.5 µM (cyclooxygenase (PGE2); [3]) [%] | inhibition at 0.5 µM (5-lipoxygenase (LTC4); [3]) [%] | inhibition at 0.1 µM (cyclooxygenase (PGE2); [3]) [%] | inhibition at 0.1 µM (5-lipoxygenase (LTC4); [3]) [%] | other results
1 | CCCCCCCC[C@@H]1C[C@@H]1CCCCCCCC(=O)C1=C(O)COC1=O (relative stereo) [Example 19, (Z)-4-Hydroxy-3-(1-oxo-8-(2'-octylcyclopropyl)octanyl)-2(5H)-furanone] | 88 | 83 | 68.4 | 37.5 | – | – | –
2 | CCCCCCCCCCC[C@@H]1C[C@@H]1CCCCC(=O)C1=C(O)COC1=O (relative stereo) [Example 55] | – | – | 74.3 | 64.2 | 39.2 | 80.3 | –
3 | COc1cccc2c1cc([N+](=O)[O-])c1c(C(=O)O)cc3c(c12)OCO3 [Aristolochic Acid, reference compound] | – | – | – | – | – | – | ED50 at +10 min. [2]: Not Active
4 | CN1CCC(=C2c3ccccc3C=Cc3ccccc32)CC1 [Cyproheptadine, reference compound] | – | – | – | – | – | – | ED50 at +10 min. [2]: 3.1 mg/kg
5 | CCCCCCNC(=O)OCC(CCC(=O)C1=C(O)COC1=O)OC(=O)NCCCCCC (stereo not shown) [Example 30, Hexylcarbamic acid 5-(2,5-dihydro-4-hydroxy-2-oxo-3-furanyl)-5-oxo-1,2-pentanediyl ester] | 21 | 37.4 | – | – | – | – | inhibition at 1 µM (cyclooxygenase (PGE2); [3]): 45.8%; inhibition at 1 µM (5-lipoxygenase (LTC4); [3]): 41.5%
6 | CCCCCCCC/C=C\CCCCCCCC(=O)OCCCC(=O)C1=C(O)COC1=O [Example 38, (Z)-9-Octadecanoic acid 4-(2,5-dihydro-4-hydroxy-2-oxo-3-furanyl)-4-oxobutanoic ester] | 18.8 | 80.9 | – | – | – | – | Topical % Inhibition at 200 μg (TPA-induced ear edema): 23%; inhibition at 1 µM (cyclooxygenase (PGE2); [3]): 75.8%; inhibition at 1 µM (5-lipoxygenase (LTC4); [3]): 46.4%
7 | CCCCCCCC/C=C\CCCCCCCCNC(=O)OC(CCC(=O)C1=C(O)COC1=O)COC/C=C(\C)CCC=C(C)C (stereo not shown) [Example 40] | 91 | 96.5 | – | – | – | – | pIC50 (cyclooxygenase (PGE2); Mus musculus, Peritoneal macrophage, zymosan stimulation, read-out: PGE2 zymosan IC50): 6.10; PGE2 zymosan % Inhibition (cyclooxygenase (PGE2); [4]): 37%; pIC50 (5-lipoxygenase (LTC4); Mus musculus, Peritoneal macrophage, zymosan stimulation, read-out: LTC4 zymosan IC50): 6.10; LTC4 zymosan % Inhibition (5-lipoxygenase (LTC4); [4]): 87%
8 | O=C(CCCCCCCCCc1ccc(Cl)cc1)C1=C(O)COC1=O [Example 41, 4-Hydroxy-3-[10-(4-chlorophenyl)-1-oxodecyl]-2(5H)-furanone] | 13 | 12 | 97 | 90 | 29 | 61 | –
9 | O=C(CCCCCCCCCc1ccc(Cl)c(Cl)c1)C1=C(O)COC1=O [Example 42, 4-Hydroxy-3-[10-(3,4-dichlorophenyl)-1-oxodecyl]-2(5H)-furanone] | 22 | 6.6 | 97 | 70 | -8 | 58 | –
10 | CC(C)(C)c1ccc(CCCCCCCCCC(=O)C2=C(O)COC2=O)cc1 [Example 43, 4-Hydroxy-3-[10-[4-(1,1-dimethylethyl)phenyl]1-oxodecyl]-2(5H)-furanone] | 44.4 | 29.7 | 92 | 96 | 54 | 71 | –
11 | O=C(CCCCCCCCCc1ccc(Br)cc1)C1=C(O)COC1=O [Example 44, 4-Hydroxy-3-[10-(4-bromophenyl)-1-oxodecyl]-2(5H)-furanone] | 37 | 16.1 | 88 | 94 | -20 | 58 | –
12 | O=C(CCCCCCCCCc1ccc(C(F)(F)F)cc1)C1=C(O)COC1=O [Example 45, 4-Hydroxy-3[10-(4-trifluoromethyl)phenyl]-2(5H)-furanone] | 55.6 | 63 | – | – | – | – | inhibition at 0.2 µM (cyclooxygenase (PGE2); [5]): 45%; inhibition at 0.2 µM (5-lipoxygenase (LTC4); [5]): 34.5%
13 | O=C(CCCCOc1ccc(Cl)cc1)C1=C(O)CSC1=O [Example 49, 4-Hydroxy-3-[5-(4-chlorophenoxy)-1-oxopentyl]-2(5H)-thiophenone] | 6.7 | 1.7 | -11.8 | -19.7 | – | – | –
14 | CC(Cc1ccc(O)c(O)c1)C(C)Cc1ccc(O)c(O)c1 (stereo not shown) [NDGA, reference compound] | – | – | – | – | – | – | pIC50 (cyclooxygenase (PGE2); Mus musculus, Peritoneal macrophage, reference compounds, 95% confidence limits on next line, read-out: IC50 PGE2): 5.67; pIC50 (5-lipoxygenase (LTC4); Mus musculus, Peritoneal macrophage, reference compounds, 95% confidence limits on next line, read-out: IC50 LTC4): […]
15 | COc1ccc2cc([C@H](C)C(=O)O)ccc2c1 [Naproxen, reference compound] | – | – | – | – | – | – | ED50 at +10 min. [2]: 18 mg/kg
16 | Luffarrellolide [reference compound] | – | – | – | – | – | – | ED50 at +10 min. [2]: Not Active
